Test results from patent US20050085441A1, “Use of soluble monovalent oligosaccharides as inhibitors of HIV-1 fusion and replication” (priority 2002, published 2005).

Assays:
[1] = tested on: HIV-1 (strain NL4.3); experiment: HIV-1 replication in vivo in NOD-SCID huPBL mice (p24, viral load in peritoneal wash)
[2] = tested on: HIV-1 laboratory strain NL4.3; experiment: Syncytia formation in MT-2 cells infected with HIV-1 NL4.3; format: cell-based
[3] = tested on: HIV-1 M-tropic strain Ba-L; experiment: Replication of M-tropic strain Ba-L in human peripheral blood monocytes (p24 release); settings: 0.5, 5 and 25 mM, MOI 0.001
[4] = tested on: HIV-1 laboratory strain NL4.3; experiment: Viral p24 antigen release, HIV-1 NL4.3 in MT-2 cells; format: cell-based; settings: for reduction of production of p24: day 7 post-infection; for effect on release of antigen p24: 0.5-50.0 mM tested, concentration not given
[5] = tested on: HIV-1 clinical isolate ME46; experiment: Replication of T-tropic clinical isolate ME46 in MT-2 cells (p24 release)
Text: MT-2 cells were infected as described above, and the course of infection was followed by the release of p24.

[6] = tested on: vesicular stomatis virus (VSV) G protein; format: cell-based, vesicular stomatitis virus
[7] = tested on: HIV-1 T-tropic envelope protein of HXB2; format: cell-based; settings: virions with HIV HXB2 envelope protein, MT-2 cells
[8] = tested on: HIV-1 clinical isolate 1936; experiment: Replication of T-tropic clinical isolate 1936 in MT-2 cells (p24 release); format: cell-based
[9] = tested on: HIV-2 isolate CBL23; experiment: Replication of HIV-2 clinical isolate CBL23 in MT-2 cells; format: cell-based; settings: single oligosaccharide
Protocol: The effect of the oligosaccharides was also tested on the replication of CLB23, a T -tropic clinical isolate of HIV-2.

`OC[C@H]1O[C@H](O[C@@H]2[C@H](O)[C@@H](O)[C@H](O[C@H]3[C@H](O)[C@@H](O)C(O)O[C@@H]3CO)O[C@@H]2CO)[C@H](O)[C@@H](O)[C@H]1O` (stereo partly drawn) [globotriose, galactose α1-4galactose β1-4glucose] was tested, and the “HIV-1 replication (p24 and viral load)” value ([1]; globotriose 15 mg/mouse i.p. single dose, days 2 and 6 post infection) was “strongly inhibited”, the “HIV-1 replication (p24 and viral load)” value ([1]; repeat experiment, single dose at beginning of infection, day 6) was “diminished replication” and the “formation of syncytia (number and size)” value ([2]; 25 mM, MT-2 cells, NL4.3) was “completely inhibited”. The “size of syncytia (number of nuclei)” value ([2]; concentrations lower than 25 mM) was “decreased”, the “inhibition of replication of strain Ba-L (p24 release)” value (“inhibition … (p24 release)” below) [3] was “did not inhibit” and the “release of antigen p24” value ([4]; 5 mM or lower) was “not at 5 mM or lower”. For the same molecule, the “reduction of production of p24” value ([4]; 25 mM globotriose) was 5 fold, the “release of antigen p24” value ([4]; 25 mM, effect maximum at days 3 and 7, recovered at day 10 post-infection) was “inhibited” and the “inhibition of replication of isolate ME46” value ([5]; 5 mM and above) was “more than ten-fold”. For the same molecule, the “expression of the luciferase reporter” value [6] was “no effect was observed except for the highest concentration”, the “expression of the luciferase reporter” value [7] was “inhibited” and the “inhibition of replication of isolate 1936” value ([8]; 5 mM and above) was “more than ten-fold”. For the same molecule, the “inhibition of replication of HIV-2 isolate CBL23” value [9] was “much weaker than for the HIV-1 isolates”.

In the case of `CC(=O)N[C@H]1[C@H](O[C@H]2[C@@H](O)[C@@H](CO)O[C@@H](O[C@H]3[C@H](O)[C@@H](O)C(O)O[C@@H]3CO)[C@@H]2O)O[C@H](CO)[C@@H](O)[C@@H]1O[C@@H]1O[C@H](CO)[C@H](O)[C@H](O)[C@H]1O` (stereo partly shown) [lacto-N-tetraose, reference compound], the “inhibition … (p24 release)” value [3] is reported as “ineffective” and the “effect on release of antigen p24” value [4] is reported as “ineffective”.

In the case of `OC[C@H]1O[C@@H](O[C@H]2[C@H](O)[C@@H](O)[C@H](O)O[C@@H]2CO)[C@H](O)[C@@H](O)[C@H]1O` [lactose, o-β-D-galactopyranosyl-(1-4)-β-D-glucopyranose], the “effect on formation of syncytia” value ([2]; 0.5-50.0 mM tested, concentration not given) is reported as “weaker than that exhibited by globotriose”, the “inhibition … (p24 release)” value [3] is reported as “ineffective” and the “reduction of production of p24” value ([4]; 5 mM lactose) is reported as 2 fold. For the same molecule, the “effect on release of antigen p24” value [4] was “less potent than globotriose”, the “effect on replication of isolate ME46” value ([5]; 15 mM) was “minor effect” and the “inhibition of replication of isolate ME46” value ([5]; 25 mM) was “ten-fold”. The “expression of the luciferase reporter” value [6] was “no effect was observed”, the “expression of the luciferase reporter” value [7] was “inhibited” and the “effect on replication of isolate 1936” value ([8]; 25 mM) was “practically did not affect”. For the same molecule, the “inhibition of replication of HIV-2 isolate CBL23” value [9] was “basically non-effective”.
